Laboratory results as given in ChEMBL document CHEMBL4138295, “Late-Stage Microsomal Oxidation Reduces Drug-Drug Interaction and Identifies Phosphodiesterase 2A Inhibitor PF-06815189” (ACS Med Chem Lett, 2018).
Active and inactive are the calls of the source. The calls are words filed in the database; no cut-off is given here.

Experiments:
Cytochrome P450 3A4 = Cytochrome P450 3A4 (Homo sapiens, UniProt P08684); experiment: Binding affinity to recombinant human CYP3A4 expressed in microsomes at 1 uM after 3 to 60 mins in presence of NADPH by HPLC-MS analysis; type: ADME
[1] = Drug metabolism in cynomolgus monkey liver microsomes assessed as PF-06815189 formation at 20 uM measured after 50 mins by UHPLC-UV analysis; type: ADME, Macaca fascicularis, microsome
[2] = Drug metabolism in cynomolgus monkey liver microsomes assessed as 7-(3-(hydroxymethyl)-1-methyl-5-(4-(trifluoromethyl)phenyl)-1H-pyrazol-4-yl)-2,5-dimethylimidazo[1,5-f][1,2,4]triazin-4(3H)-one formation at 20 uM measured after 50 mins by UHPLC-UV analysis; type: ADME, Macaca fascicularis, microsome
[3] = target: cGMP-dependent 3',5'-cyclic phosphodiesterase (Homo sapiens, UniProt O00408); experiment: Inhibition of human PDE2A1 using 3',5'-[3H]cGMP as substrate measured after 30 mins by Yttrium silicate scintillation proximity assay
[4] = Drug metabolism in cynomolgus monkey liver microsomes assessed as 5-(hydroxymethyl)-7-(3-(hydroxymethyl)-1-methyl-5-(4-(trifluoromethyl)phenyl)-1H-pyrazol-4-yl)-2-methylimidazo[1,5-f][1,2,4]triazin-4(3H)-one formation at 20 uM measured after 50 mins by UHPLC-UV analysis; type: ADME, Macaca fascicularis, microsome
Homo sapiens [5] = species: Homo sapiens; experiment: Selectivity ratio of IC50 for PDE5A1 (unknown origin) to IC50 for human PDE2A1
[6] = Oral bioavailability in cynomolgus monkey at 5 mg/kg administered via gavage by LC-MS/MS analysis; type: ADME, organism-based, Macaca fascicularis; details: in vivo
[7] = Oral bioavailability in Beagle dog at 5 mg/kg administered via gavage by LC-MS/MS analysis; type: ADME, organism-based, Canis lupus familiaris; details: in vivo
[8] = target: cGMP-specific 3',5'-cyclic phosphodiesterase (Homo sapiens, UniProt O76074); experiment: Inhibition of PDE5A1 (unknown origin) using 3',5'-[3H]cGMP as substrate measured after 30 mins by Yttrium silicate scintillation proximity assay
Canis familiaris [9] = experiment: Volume of distribution at steady state in Beagle dog at 1 mg/kg, iv or po via gavage by LC-MS/MS analysis; type: ADME, organism-based, Canis lupus familiaris; details: in vivo
Cavia porcellus = experiment: Inhibition of histamine-mediated increase in vascular permeability in guinea pig assessed as reduction in extravasation of Evan's blue dye-labeled albumin from blood to skin at 0.3 to 10 mg/kg, sc measured after 30 mins by spectrophotometric method; type: functional, organism-based
[10] = Drug recovery in Wistar-Han rat at 1 mg/kg, iv or 5 mg/kg, po via gavage measured up to 24 hrs by LC-MS/MS analysis; type: ADME, organism-based; details: in vivo, read-out: Drug recovery
Cynomolgus monkey [11] = experiment: Volume of distribution at steady state in cynomolgus monkey at 1 mg/kg, iv or po via gavage by LC-MS/MS analysis; type: ADME, organism-based, Macaca fascicularis; details: in vivo
[12] = Drug recovery in cynomolgus monkey at 1 mg/kg, iv or po via gavage measured up to 24 hrs by LC-MS/MS analysis; type: ADME, organism-based, Macaca fascicularis; details: in vivo, read-out: Drug recovery
Cynomolgus monkey [13] = experiment: Half life in cynomolgus monkey at 1 mg/kg, iv or po via gavage by LC-MS/MS analysis; type: ADME, organism-based, Macaca fascicularis; details: in vivo
[14] = Apparent permeability in RRCK cells; type: ADME, cell-based, Canis lupus familiaris; details: dog, mdckii-le
[15] = Drug recovery in Beagle dog at 1 mg/kg, iv or po via gavage measured up to 24 hrs by LC-MS/MS analysis; type: ADME, organism-based, Canis lupus familiaris; details: in vivo, read-out: Drug recovery
Homo sapiens [16] = species: Homo sapiens; experiment: Inhibition of sodium channel site 2 (unknown origin) at 10 uM relative to control
[17] = Half life in Wistar-Han rat at 1 mg/kg, iv or 5 mg/kg, po via gavage by LC-MS/MS analysis; type: ADME, organism-based; details: in vivo
Canis familiaris [18] = experiment: Half life in Beagle dog at 1 mg/kg, iv or po via gavage by LC-MS/MS analysis; type: ADME, organism-based, Canis lupus familiaris; details: in vivo
Rattus norvegicus [19] = experiment: Oral bioavailability in Wistar-Han rat at 5 mg/kg administered via gavage by LC-MS/MS analysis; type: ADME, organism-based; details: in vivo
Rattus norvegicus [20] = experiment: Volume of distribution at steady state in Wistar-Han rat at 1 mg/kg, iv or 5 mg/kg, po via gavage by LC-MS/MS analysis; type: ADME, organism-based; details: in vivo

Sequence of cGMP-dependent 3',5'-cyclic phosphodiesterase (O00408 whole entry): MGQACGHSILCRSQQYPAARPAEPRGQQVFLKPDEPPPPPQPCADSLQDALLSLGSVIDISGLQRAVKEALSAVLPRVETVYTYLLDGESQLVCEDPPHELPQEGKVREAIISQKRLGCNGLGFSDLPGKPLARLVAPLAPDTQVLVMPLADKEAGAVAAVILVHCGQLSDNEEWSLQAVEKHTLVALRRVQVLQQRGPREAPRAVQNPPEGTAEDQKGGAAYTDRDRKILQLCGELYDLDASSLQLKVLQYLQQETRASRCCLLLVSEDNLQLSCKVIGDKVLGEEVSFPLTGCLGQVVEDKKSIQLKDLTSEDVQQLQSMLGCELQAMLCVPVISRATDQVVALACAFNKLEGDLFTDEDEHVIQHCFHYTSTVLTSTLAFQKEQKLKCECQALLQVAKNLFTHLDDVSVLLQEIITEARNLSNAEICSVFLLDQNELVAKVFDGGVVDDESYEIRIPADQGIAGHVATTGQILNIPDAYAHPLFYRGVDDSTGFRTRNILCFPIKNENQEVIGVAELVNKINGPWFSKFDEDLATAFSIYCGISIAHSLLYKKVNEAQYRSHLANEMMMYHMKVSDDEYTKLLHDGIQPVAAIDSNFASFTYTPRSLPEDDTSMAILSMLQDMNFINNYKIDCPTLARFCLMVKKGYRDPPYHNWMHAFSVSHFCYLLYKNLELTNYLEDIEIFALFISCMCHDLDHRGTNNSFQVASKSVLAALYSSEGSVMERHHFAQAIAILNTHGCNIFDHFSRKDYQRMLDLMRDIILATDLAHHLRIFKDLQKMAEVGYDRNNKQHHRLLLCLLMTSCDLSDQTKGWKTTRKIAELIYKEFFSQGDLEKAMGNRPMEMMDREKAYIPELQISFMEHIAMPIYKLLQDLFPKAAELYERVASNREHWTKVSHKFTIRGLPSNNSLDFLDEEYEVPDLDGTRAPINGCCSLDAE
Sequence of Cytochrome P450 3A4 (P08684 whole entry): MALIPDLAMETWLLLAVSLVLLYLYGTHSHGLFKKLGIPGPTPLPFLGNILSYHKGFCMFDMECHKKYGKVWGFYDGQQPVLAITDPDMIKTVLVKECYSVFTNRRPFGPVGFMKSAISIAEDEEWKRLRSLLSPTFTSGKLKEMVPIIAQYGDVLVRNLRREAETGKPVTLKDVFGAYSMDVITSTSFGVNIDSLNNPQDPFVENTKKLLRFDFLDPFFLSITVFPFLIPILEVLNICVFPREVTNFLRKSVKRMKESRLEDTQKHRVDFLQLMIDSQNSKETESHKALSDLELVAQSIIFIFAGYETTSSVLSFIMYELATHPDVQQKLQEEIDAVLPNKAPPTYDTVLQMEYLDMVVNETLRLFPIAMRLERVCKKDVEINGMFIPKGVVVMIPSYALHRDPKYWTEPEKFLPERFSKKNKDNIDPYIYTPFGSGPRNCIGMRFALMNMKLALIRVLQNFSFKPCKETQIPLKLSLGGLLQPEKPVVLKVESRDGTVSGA

SMILES: Cc1nn2c(-c3c(C)nn(C)c3-c3ccc(C(F)(F)F)cc3)nc(C)c2c(=O)[nH]1
- Activity (Cytochrome P450 3A4): Active
- Drug metabolism [1]: Metabolite_Detected
- Drug metabolism [2]: Metabolite_Detected
- IC50 [3]: 0.6 nM
- Drug metabolism [4]: Metabolite_Detected

SMILES: Cc1nn2c(-c3c(C)nn(C)c3-c3ccc(C(F)(F)F)cc3)nc(CO)c2c(=O)[nH]1
- Ratio IC50 (Homo sapiens [5]): 1000
- bioavailability [6]: 61%
- bioavailability [7]: 79%
- IC50 [8]: 2440 nM
- Vdss (Canis familiaris [9]): 0.4 L/kg
- inhibition (Cavia porcellus): Active
- dose excreted at 24 h [10]: 22%
- Vdss (Cynomolgus monkey [11]): 0.8 L/kg
- dose excreted at 24 h [12]: 26%
- t1/2 (Cynomolgus monkey [13]): 3.6 h
- Papp [14]: 8 ×10⁻⁶ cm/s
- dose excreted at 24 h [15]: 48%
- inhibition (Homo sapiens [16]): 17%
- half-life [17]: 72 min
- IC50 [3]: 0.4 nM
- t1/2 (Canis familiaris [18]): 4.8 h
- F (Rattus norvegicus [19]): 50%
- Vdss (Rattus norvegicus [20]): 1.5 L/kg

SMILES: Cc1nn2c(-c3c(CO)nn(C)c3-c3ccc(C(F)(F)F)cc3)nc(C)c2c(=O)[nH]1
- Papp [14]: 17 ×10⁻⁶ cm/s
- IC50 [3]: 6.9 nM

SMILES: Cc1nn2c(-c3c(CO)nn(C)c3-c3ccc(C(F)(F)F)cc3)nc(CO)c2c(=O)[nH]1
- Papp [14]: 5 ×10⁻⁶ cm/s
